Measured values as given in BindingDB's records for doi:10.1021/acschembio.6b00304 (Icahn School of Medicine At Mount Sinai, 2016).

Biological target: T1, Solute carrier family 2, facilitated glucose transporter member 1 (Homo sapiens, UniProt P11166)
T1 sequence (P11166 whole entry): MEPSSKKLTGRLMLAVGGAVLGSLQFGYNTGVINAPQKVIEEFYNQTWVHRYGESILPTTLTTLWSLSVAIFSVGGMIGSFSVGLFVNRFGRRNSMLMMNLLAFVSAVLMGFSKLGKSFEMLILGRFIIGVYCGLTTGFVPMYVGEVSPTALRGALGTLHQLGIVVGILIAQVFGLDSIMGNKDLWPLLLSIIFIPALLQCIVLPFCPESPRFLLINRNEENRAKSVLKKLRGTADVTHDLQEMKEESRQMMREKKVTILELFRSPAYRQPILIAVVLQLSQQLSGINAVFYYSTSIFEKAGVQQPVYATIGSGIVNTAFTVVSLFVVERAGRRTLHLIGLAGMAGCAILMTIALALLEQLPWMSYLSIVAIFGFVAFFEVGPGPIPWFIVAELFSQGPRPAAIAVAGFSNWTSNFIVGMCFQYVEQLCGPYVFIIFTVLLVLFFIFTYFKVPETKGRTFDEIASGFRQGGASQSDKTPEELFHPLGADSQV
Test: [3H]-2-Deoxy-D-glucose ([3H]-2-DG) Uptake Assay
Method: The stably transfected CHO cells were seeded in poly 24-well plates and were grown to 80−90% confluence. […] The known hGLUT1 inhibitor phloretin (Accela ChemBio, San Diego, CA) was included as a positive control. […] Compounds were obtained from the National Cancer Institute (NCI) or purchased from commercial vendors. The reaction was terminated by washing cells twice with ice-cold PBS, followed by the addition of 200 μL of lysis buffer (0.1% (w/v) SDS, 0.1 N NaOH).Intracellular radioactivity was determined by scintillation counting.

Structure (SMILES) | IC50
CC[C@@H]1O[C@H](c2cc(O)cc(/C=C/c3ccc(O)c(O)c3)c2)[C@@H](O)[C@H](O)[C@H]1O [PUG-6] | 37.9 µM
NNc1nc(NCc2ccco2)c2nc[nH]c2n1 [PUG-3] | 27.1 µM
O=c1[nH][nH]c(=O)c2[nH]cnc12 [PUG-8] | 22.5 µM
O=C(CCc1ccc(O)cc1)c1c(O)cc(O)cc1O[C@H]1O[C@@H](CO)[C@H](O)[C@@H](O)[C@@H]1O [PUG-5 (Phlorizin)] | 23 µM
c1ccc(CNc2ncnc3n[nH]nc23)cc1 [PUG-4] | 30 µM
O=c1[nH]c(=O)c2ncn(-c3ccccc3)c2[nH]1 [PUG-2] | 58.6 µM
O=c1[nH]ncc2c1Sc1cn[nH]c(=O)c1S2 [PUG-7] | 11.8 µM
